Assay results as given in PubChem BioAssay (NCI).
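Growth conditions: 96-well plates. Treatment: test compound, 48 hours, 5 concentrations. Analysis: linear interpolation between bracketing concentrations; unreached endpoints set to highest concentration. The concentration for 50% growth inhibition is given as GI50. TGI denotes the concentration required for complete inhibition of growth.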

What was measured:
Experiment in all cases: inhibition of tumour cell growth, NCI panel, 48 h
CAKI-1 renal = tested on: CAKI-1 renal
OVCAR-5 ovarian = tested on: OVCAR-5 ovarian
T-47D breast = tested on: T-47D breast
786-0 renal = tested on: 786-0 renal
KM12 colon = tested on: KM12 colon
HCC-2998 colon = tested on: HCC-2998 colon
SNB-19 CNS = tested on: SNB-19 CNS
SNB-75 CNS = tested on: SNB-75 CNS
MOLT-4 leukemia = tested on: MOLT-4 leukemia
K-562 leukemia = tested on: K-562 leukemia

`CCCSc1ccc2[nH]c(N3C(=O)/C(=C/c4ccccc4)N=C3c3ccccc3)cc2c1` was tested, and the TGI (CAKI-1 renal) was over 50 µM, the TGI (OVCAR-5 ovarian) was over 50 µM and the TGI (T-47D breast) was over 50 µM. For the same molecule, the TGI (786-0 renal) was over 50 µM, the TGI (KM12 colon) was over 50 µM and the TGI (HCC-2998 colon) was 44.6 µM. For the same molecule, the TGI (SNB-19 CNS) was over 50 µM, the TGI (SNB-75 CNS) was over 50 µM and the TGI (MOLT-4 leukemia) was over 50 µM. It also gave a TGI (K-562 leukemia) of over 50 µM.
With `CCOC(=O)Nn1c(CC#N)nnc1Cc1ccccc1` the TGI (CAKI-1 renal) was over 100 µM, the TGI (OVCAR-5 ovarian) was over 100 µM and the TGI (T-47D breast) was over 100 µM. For the same molecule, the TGI (786-0 renal) was over 100 µM, the TGI (KM12 colon) was over 100 µM and the TGI (HCC-2998 colon) was over 100 µM. The TGI (SNB-19 CNS) was over 100 µM, the TGI (SNB-75 CNS) was over 100 µM and the TGI (MOLT-4 leukemia) was over 100 µM. For the same molecule, the TGI (K-562 leukemia) was over 100 µM.
`CC(C)C(C/C=C1\CC(CO)(COC(=O)C2CCCCC2)OC1=O)C(C)C` (stereo unspecified) gave a TGI (CAKI-1 renal) of 43.8 µM, a TGI (OVCAR-5 ovarian) of 41.8 µM and a TGI (T-47D breast) of 48 µM. The TGI (786-0 renal) was 28.9 µM, the TGI (KM12 colon) was 39.5 µM and the TGI (HCC-2998 colon) was 65.1 µM. It also gave a TGI (SNB-19 CNS) of 31.4 µM, a TGI (SNB-75 CNS) of 26.5 µM and a TGI (MOLT-4 leukemia) of 39.8 µM. The TGI (K-562 leukemia) was 55.6 µM.
With `CC(C)(C)CC(C)(C)c1cc(O)c(O)c(CN2CCCCC2)c1` the TGI (CAKI-1 renal) was 27.9 µM, the TGI (OVCAR-5 ovarian) was 31.8 µM and the TGI (T-47D breast) was 33.9 µM. For the same molecule, the TGI (786-0 renal) was 26.7 µM, the TGI (KM12 colon) was 40.4 µM and the TGI (HCC-2998 colon) was 22.4 µM. It also gave a TGI (SNB-19 CNS) of 28.8 µM, a TGI (SNB-75 CNS) of 37.3 µM and a TGI (MOLT-4 leukemia) of 16.4 µM. The TGI (K-562 leukemia) was 19.3 µM.
`CCc1cc2c(c3c1CCCC3=O)CC1(Cc3ccc(C(=O)OC)cc3C1)C2` (stereo unspecified) gave a TGI (CAKI-1 renal) of over 100 µM, a TGI (OVCAR-5 ovarian) of over 100 µM and a TGI (T-47D breast) of over 100 µM. The TGI (786-0 renal) was over 100 µM, the TGI (KM12 colon) was over 100 µM and the TGI (HCC-2998 colon) was over 100 µM. The TGI (SNB-19 CNS) was over 100 µM, the TGI (SNB-75 CNS) was over 100 µM and the TGI (MOLT-4 leukemia) was over 100 µM. The TGI (K-562 leukemia) was over 100 µM.
In the case of `CC(Oc1ccccc1Cl)C(=O)NN1C(=O)CSC1c1ccccc1` (stereo unspecified), the TGI (CAKI-1 renal) is reported as over 100 µM, the TGI (OVCAR-5 ovarian) is reported as over 100 µM and the TGI (T-47D breast) is reported as over 100 µM. It also gave a TGI (786-0 renal) of over 100 µM, a TGI (KM12 colon) of over 100 µM and a TGI (HCC-2998 colon) of over 100 µM. The TGI (SNB-19 CNS) was over 100 µM, the TGI (SNB-75 CNS) was over 100 µM and the TGI (MOLT-4 leukemia) was over 100 µM. It also gave a TGI (K-562 leukemia) of over 100 µM.
Molecule `COc1ccc(OC)c(SC(CC(=O)c2ccccc2)c2ccccc2)c1` (stereo unspecified) has a TGI (CAKI-1 renal) of 28.5 µM, a TGI (OVCAR-5 ovarian) of 33.5 µM and a TGI (T-47D breast) of 35.8 µM. For the same molecule, the TGI (786-0 renal) was 29.2 µM, the TGI (KM12 colon) was 15.2 µM and the TGI (HCC-2998 colon) was 31.6 µM. For the same molecule, the TGI (SNB-19 CNS) was 27.8 µM, the TGI (SNB-75 CNS) was 33.6 µM and the TGI (MOLT-4 leukemia) was over 100 µM. It also gave a TGI (K-562 leukemia) of over 100 µM.
For `COc1cnc2c(c1)C(=O)c1c-2n(CCCNCCO)c(=O)c2ccncc12`, the GI50 (CAKI-1 renal) was 1370 nM, the TGI (CAKI-1 renal) was 13 µM and the GI50 (OVCAR-5 ovarian) was 2740 nM. It also gave a TGI (OVCAR-5 ovarian) of 20.5 µM, a GI50 (T-47D breast) of 845 nM and a TGI (T-47D breast) of 37.5 µM. It also gave a GI50 (KM12 colon) of 1510 nM, a TGI (KM12 colon) of 11.7 µM and a GI50 (HCC-2998 colon) of 1580 nM. The TGI (HCC-2998 colon) was 4.19 µM, the GI50 (SNB-75 CNS) was 1130 nM and the TGI (SNB-75 CNS) was 4.2 µM. It also gave a GI50 (MOLT-4 leukemia) of 405 nM, a TGI (MOLT-4 leukemia) of 10.2 µM and a GI50 (K-562 leukemia) of 856 nM. For the same molecule, the TGI (K-562 leukemia) was 13 µM.
Molecule `CC1(C)CC(=O)C2(CC(CSc3ccccc3)C(CS(=O)(=O)c3ccccc3)C2)C(=O)C1` (stereo unspecified) has a TGI (CAKI-1 renal) of over 100 µM, a TGI (OVCAR-5 ovarian) of over 100 µM and a TGI (T-47D breast) of over 100 µM. The TGI (786-0 renal) was over 100 µM, the TGI (KM12 colon) was over 100 µM and the TGI (HCC-2998 colon) was over 100 µM. It also gave a TGI (SNB-19 CNS) of over 100 µM, a TGI (SNB-75 CNS) of over 100 µM and a TGI (MOLT-4 leukemia) of over 100 µM. The TGI (K-562 leukemia) was over 100 µM.
`O=C(Nc1ccccc1C(=O)NCc1ccccc1)/C(=C/c1ccccc1)NC(=O)c1ccccc1` showed a TGI (CAKI-1 renal) of over 100 µM, a TGI (OVCAR-5 ovarian) of over 100 µM and a TGI (T-47D breast) of over 100 µM. The TGI (786-0 renal) was over 100 µM, the TGI (KM12 colon) was over 100 µM and the TGI (HCC-2998 colon) was over 100 µM. It also gave a TGI (SNB-19 CNS) of over 100 µM, a TGI (SNB-75 CNS) of over 100 µM and a TGI (MOLT-4 leukemia) of over 100 µM. It also gave a TGI (K-562 leukemia) of over 100 µM.
`O=C(c1cccs1)N1CCN(C(=O)c2cccs2)C1=S` gave a TGI (CAKI-1 renal) of 15.3 µM, a TGI (OVCAR-5 ovarian) of 30.3 µM and a TGI (T-47D breast) of 23.8 µM. The TGI (786-0 renal) was 12.4 µM, the TGI (KM12 colon) was 12.4 µM and the TGI (HCC-2998 colon) was 22 µM. For the same molecule, the TGI (SNB-19 CNS) was 32.7 µM, the TGI (SNB-75 CNS) was 11.7 µM and the TGI (MOLT-4 leukemia) was 8.18 µM. It also gave a TGI (K-562 leukemia) of over 45.2 µM.
Work on `CN(C)CCCNc1ccc2nnn3c4ccc(O)cc4c(=O)c1c23` yielded a TGI (CAKI-1 renal) of 13.1 µM, a TGI (OVCAR-5 ovarian) of 23.2 µM and a TGI (T-47D breast) of 40.9 µM. The TGI (786-0 renal) was 16.9 µM, the TGI (KM12 colon) was 13.5 µM and the TGI (HCC-2998 colon) was 15.2 µM. It also gave a TGI (SNB-19 CNS) of 23.7 µM, a TGI (SNB-75 CNS) of 20.2 µM and a TGI (MOLT-4 leukemia) of 9.3 µM. The TGI (K-562 leukemia) was over 57.2 µM.
With `O=C(N/N=C/C=C/c1ccccc1)c1ccccc1Nc1ccccc1C(=O)N/N=C/C=C/c1ccccc1` the TGI (CAKI-1 renal) was over 100 µM, the TGI (OVCAR-5 ovarian) was over 100 µM and the TGI (T-47D breast) was over 100 µM. It also gave a TGI (786-0 renal) of over 100 µM, a TGI (KM12 colon) of over 100 µM and a TGI (HCC-2998 colon) of over 100 µM. The TGI (SNB-19 CNS) was over 100 µM, the TGI (SNB-75 CNS) was over 100 µM and the TGI (MOLT-4 leukemia) was over 100 µM. For the same molecule, the TGI (K-562 leukemia) was over 100 µM.
For `Nc1nc(Cl)cc(NC23CC4CC(CC(C4)C2)C3)n1`, the TGI (CAKI-1 renal) was over 100 µM, the TGI (OVCAR-5 ovarian) was over 100 µM and the TGI (T-47D breast) was over 100 µM. For the same molecule, the TGI (786-0 renal) was over 100 µM, the TGI (KM12 colon) was over 100 µM and the TGI (HCC-2998 colon) was over 100 µM. It also gave a TGI (SNB-19 CNS) of over 100 µM, a TGI (SNB-75 CNS) of 90.8 µM and a TGI (MOLT-4 leukemia) of over 100 µM. The TGI (K-562 leukemia) was over 100 µM.
`CC(C)=CCNc1nc(Cl)nc2nc[nH]c12` showed a TGI (CAKI-1 renal) of over 100 µM, a TGI (OVCAR-5 ovarian) of over 100 µM and a TGI (T-47D breast) of over 100 µM. It also gave a TGI (786-0 renal) of over 100 µM, a TGI (KM12 colon) of over 100 µM and a TGI (HCC-2998 colon) of over 100 µM. The TGI (SNB-19 CNS) was over 100 µM, the TGI (SNB-75 CNS) was over 100 µM and the TGI (MOLT-4 leukemia) was over 100 µM. For the same molecule, the TGI (K-562 leukemia) was over 100 µM.
Work on `CCOC(=O)c1cc2c([N+](=O)[O-])c(N)ccc2s1` yielded a TGI (CAKI-1 renal) of over 100 µM, a TGI (OVCAR-5 ovarian) of over 100 µM and a TGI (T-47D breast) of over 100 µM. For the same molecule, the TGI (786-0 renal) was over 100 µM, the TGI (KM12 colon) was over 100 µM and the TGI (HCC-2998 colon) was over 100 µM. The TGI (SNB-19 CNS) was over 100 µM, the TGI (SNB-75 CNS) was over 100 µM and the TGI (MOLT-4 leukemia) was over 100 µM. The TGI (K-562 leukemia) was over 100 µM.
In the case of `C=C=C(CC(CC(=C)Br)(C(=O)OC)C(=O)OC)S(=O)(=O)c1ccccc1`, the TGI (CAKI-1 renal) is reported as 2.71 µM, the TGI (OVCAR-5 ovarian) is reported as 3.43 µM and the TGI (T-47D breast) is reported as over 100 µM. The TGI (786-0 renal) was 2.36 µM, the TGI (KM12 colon) was 5.81 µM and the TGI (HCC-2998 colon) was 9.18 µM. For the same molecule, the TGI (SNB-19 CNS) was 24.9 µM, the TGI (SNB-75 CNS) was 20.5 µM and the TGI (MOLT-4 leukemia) was over 100 µM. For the same molecule, the TGI (K-562 leukemia) was over 100 µM.
